Experimental data reported in PubChem BioAssay AID179 (DTP/NCI, 2004).
Active and inactive are the calls of the source.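 How the source made its calls: active means compounds giving half or more protection of infected cells from virus-caused growth loss, again on retest; inactive means the rest.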

Tested on: CEM cells HIV-1 protection, formazan growth assay
Test: NCI AIDS Antiviral Assay
Conditions: for IC50: measured here: growth of uninfected CEM cells
Procedure, shortened: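 Human CEM cells, uninfected and HIV-1-infected, received five drug concentrations, and growth was read by soluble formazan assay. Compounds giving at least 50% protection were retested; reproducible 100% protection defined confirmed active.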

| SMILES | outcome | EC50 | IC50 |
| --- | --- | --- | --- |
| Cc1ccc(NC(=O)SCCC(=O)O)cc1NC(=O)SCCC(=O)O | inactive |  |  |
| O=[N+]([O-])c1ccc(-c2ccc(C3=Nn4c(nnc4-c4ccc(Cl)cc4)SC3)o2)cc1 |  | > 1.74 µM | > 1.74 µM |
| CC1OC(OCC2COC(O)(Oc3c(-c4ccc(O)c(O)c4)oc4cc(O)cc(O)c4c3=O)C(O)C2O)C(O)C(O)C1O (configuration not stated) | inactive |  |  |
| C=C(CC/C=C\CO)[Si](C)(C)C |  | > 141 µM | > 141 µM |
| CS(=O)(=O)CC(Cc1ccccc1)C(=O)O (configuration not stated) | inactive |  |  |
| CC(C)[C@H]1CO[C@@H]2CCC(=O)N12 |  | > 1050 µM | > 1050 µM |
| CC(=O)Oc1c(N2CCCCC2)c(C(=O)c2ccccc2)c(O)c2ccn(N(C)C)c12 |  | > 200 µM | 8.32 µM |
| COC(=O)c1cncc2c1CC1C3(C(=O)OC)C=NC(C4C(CO)=CCC43)C21C (configuration not stated) | inactive |  |  |
| COC(=O)c1ccc2n[se]nc2c1 | inactive |  |  |
| COc1ccc(/C=N/NC(=O)c2ccccc2Nc2ccccc2C(=O)N/N=C/c2ccc(OC)cc2)cc1 |  | > 102 µM | 85.1 µM |
| CCCCOC(=O)C(=O)C(CCC(=O)c1ccc(C)cc1)C(=O)C=C(C)C (configuration not stated) |  | > 69.2 µM | > 69.2 µM |
| O=C(O)CCc1coc2ccc(O)cc12 | inactive |  |  |
| CCCCn1cc(C(=O)O)c(=O)c2c3sccc3ccc21 |  | > 200 µM | 22.4 µM |
| c1cc2c(ncc3cscc32)s1 | inactive |  |  |
| CC(=O)OCCOCn1c2ccccc2c2c3c(c4c5ccccc5n(COCCOC(C)=O)c4c21)C(=O)N(Cc1ccccc1)C3=O | inactive |  |  |
| CC1=C[C@H]2O[C@H]3C[C@H]4OC(=O)/C=C\C=C\C(=O)OCC[C@@H](C)C(O)C(=O)OC[C@@]2(CC1)[C@@]4(C)[C@]31CO1 (some centres not stated) |  | > 0.363 µM | 0.0112 µM |
| NC1=NCC(c2ccc(Cl)cc2)O1 (configuration not stated) |  | > 200 µM | 50.1 µM |
| NC(=O)c1cc([N+](=O)[O-])cc([N+](=O)[O-])c1 |  | > 200 µM | 40.7 µM |
| C=C(CN(CC)CC)C1(c2ccccc2)CC2(CCCC2)C(=O)O1 (configuration not stated) |  | > 200 µM | 117 µM |
| COC(=O)/C=C1\SC2(OC1=Nc1ccccc1)C1CC3CC(C1)CC2C3 (configuration not stated) |  | > 200 µM | > 200 µM |
| CN(C)CC1CCCc2ccccc2C1=O (configuration not stated) | inactive |  |  |
| COc1c(C)c2nc3ccccc3[nH]c2c2c(=O)ccnc12 |  | > 100 µM | > 100 µM |
| NC(CSSCC(N)=NCCCCCSC12CC3CC(CC(C3)C1)C2)=NCCCCCSC12CC3CC(CC(C3)C1)C2 |  | > 200 µM | 6.17 µM |

| SMILES | outcome | EC50 | IC50 |
| --- | --- | --- | --- |
| CCOC(=O)C(=O)Nc1ccc(C)c(C)c1 |  | > 427 µM | > 427 µM |
| C=CC(C)(C)c1c(OC(C)=O)cc2oc3c(OC(C)=O)c(OC(C)=O)cc(CC=C(C)C)c3c(=O)c2c1O |  | > 200 µM | 120 µM |
| C[Si](C)(C)CCOCN(C(=O)C1=CCC2(CC1)OCCO2)c1ccccc1I |  | > 200 µM | 12.9 µM |
| CNc1ccc(N)cc1C(=O)N1CCC[C@H]1CO |  | > 200 µM | > 200 µM |
| CCOC(=O)c1sc(SC)nc1N |  | > 200 µM | > 200 µM |
| O=C(O)CCC1CCc2cccc(O)c2C1=O (configuration not stated) | inactive |  |  |
| C=C1CC(C)(COc2ccc3ccc(=O)oc3c2)OC1=O (configuration not stated) |  | > 20 µM | 0.275 µM |
| COC(=O)C1=C(C)C(=O)C2(CCCCCC2C(=O)OC)C1 (configuration not stated) |  | > 200 µM | > 200 µM |
| Cc1cc(Cl)ccc1NC(=O)CC1SC(=Nc2ccccc2Cl)NC1=O (configuration not stated) |  | > 89.1 µM | 43.7 µM |
| CC1=NNC(=O)C1C1CC(c2c[nH]c3ccccc23)=Nn2c(-c3ccccc3)nnc21 (configuration not stated) |  | > 100 µM | 32.4 µM |
| O=C1c2cccnc2S(=O)(=O)N1c1ccc(Br)cc1 |  | > 200 µM | 74.1 µM |
| COc1ccc(Br)c(CCCCC(=O)O)c1 | inactive |  |  |
| O=C1C(=C2SC(c3ccccc3)(c3ccccc3)c3ccccc32)C(=O)c2ccccc21 |  | > 200 µM | > 200 µM |
| Cc1ccc(O)c(Cc2cc(C)cc(Cc3cc(C)ccc3O)c2O)c1 |  | > 102 µM | 20 µM |
| CCOC(=O)c1oc2cc(O)cc(O)c2c(=O)c1-c1ccc(OC)cc1 |  | > 200 µM | 21.9 µM |
| COC(=O)c1cc(OC(C)=O)c2c(OC)ccc(OC)c2c1 | inactive |  |  |
| COc1cc(Oc2c(O)c(C)c(OC)c(C(C)=O)c2O)c(C(C)=O)c(O)c1C |  | > 93.3 µM | > 93.3 µM |
| CCCC(N)S(=O)(=O)O (configuration not stated) |  | > 200 µM | > 200 µM |
| CC1(C)CNC[C@@]2(C)OCCN(C(=O)OC(C)(C)C)CCO[C@]3(C)CNCC(C)(C)NC(=O)[C@@](C)(CNCC(C)(C)NC3=O)OCCN(C(=O)OC(C)(C)C)CCO[C@](C)(CNCC(C)(C)NC2=O)C(=O)N1 | inactive |  |  |
| C1CSC[C@H]2COC[C@@H](CSCCS1)S2 |  | > 631 µM | > 631 µM |
| O=C(Nc1ccc(S(=O)(=O)/N=c2\ncccn2C(=O)C(C(F)(F)F)C(F)(F)F)cc1)C(C(F)(F)F)C(F)(F)F |  | > 200 µM | > 200 µM |
| O=[N+]([O-])c1nccn1CCC[n+]1cccc2ccccc21 |  | > 200 µM | > 200 µM |
| Oc1cccc2c1N1CCN2CC1 |  | > 200 µM | > 200 µM |

| SMILES | outcome | EC50 | IC50 |
| --- | --- | --- | --- |
| CCCCCCC[C@@H](O)CC(=O)NC(CC(C)C)C(=O)NC(CCC(=O)O)C(=O)NC1C(=O)NC(C(C)C)C(=O)NC(CC(C)C)C(=O)NC(CO)C(=O)NC(CC(C)C)C(=O)NC(CO)C(=O)NC(C(C)CC)C(=O)OC1C (some centres not stated) |  | 91.2 µM | 166 µM |
| S=C(N/N=C/c1ccccc1Cl)Nc1ccccc1 |  | > 200 µM | 135 µM |
| CC1(C)C=CC(C)(C)c2c(NS(=O)(=O)c3ccccc3)ccc(NS(=O)(=O)c3ccccc3)c21 |  | > 200 µM | 63.1 µM |
| O=c1nc2c(c(-c3ccccc3Cl)[nH]1)COC/C2=C\c1ccccc1Cl |  | > 200 µM | 89.1 µM |
| CC[C@@]1(O)C(=O)OCc2c1cc1n(c2=O)Cc2cc3cc4c(cc3nc2-1)OCO4 |  | > 0.002 µM | 0.000331 µM |
| CC(=O)Nc1ccc(S(=O)(=O)Nc2cnc3ccccc3n2)cc1 |  | > 525 µM | > 525 µM |
| CC1(O)CC(C(F)(F)F)(C(F)(F)F)OC1=O (configuration not stated) |  | > 200 µM | > 200 µM |
| O=C(CP(=O)(O)O)c1cccs1 |  | > 1200 µM | > 1200 µM |
| COc1ccc(C(=O)/C=C/c2ccc(OCC(=N)N)cc2)cc1OC | inactive |  |  |
| O=C1OC(c2ccccc2)N(C(=O)c2ccccc2)C1Cc1ccc(OCc2ccccc2)cc1 (configuration not stated) |  | > 200 µM | 85.1 µM |
| CCOc1ccc(NC(=O)CC2SC(=Nc3ccc(C)cc3)NC2=O)cc1 (configuration not stated) |  | > 67.6 µM | > 67.6 µM |
| COCc1c(C)oc2c(C)c3oc(=O)cc(C)c3cc12 |  | > 110 µM | > 110 µM |
| COc1ccc(N2C(=O)[C@@H]3[C@@H]4CC(C)CC[C@@H]4c4c([nH]c5ccccc45)[C@@H]3C2=O)cc1 (some centres not stated) |  | > 3.31 µM | > 3.31 µM |
| COc1ccccc1NC(=O)CC(=O)NNCC(=O)Nc1nnc(-c2ccccc2)o1 |  | > 85.1 µM | > 85.1 µM |
| CCOC(=O)C(NC(=O)c1cccc(Cl)c1)(Nc1ccc(S(=O)(=O)Nc2cc(C)nc(C)n2)cc1)C(F)(F)F (configuration not stated) |  | > 200 µM | > 200 µM |
| CCOC(=O)c1sc2c(c1OC(=O)c1ccc(OC)cc1)c(=O)n(-c1ccccc1)c(=S)n2-c1ccccc1 |  | > 200 µM | 38.9 µM |
| NC(=S)N/N=C/c1cn(CCCl)c2ccccc12 |  | > 25.7 µM | 15.8 µM |
| O=C(Nc1ccc(-c2ccccc2)oc1=O)c1ccccc1 |  | > 100 µM | > 100 µM |
| CCCCCC1=CC(=O)C1(Cl)Cl |  | > 200 µM | 27.5 µM |
| N#CC(C(=O)C(=O)Nc1ccc(Cl)cc1)c1ccccc1 (configuration not stated) | inactive |  |  |
| Clc1cc2nncc(N3CC3)c2cc1Cl | inactive |  |  |
| CCN(CC)CCn1c2ccccc2c(=O)c2c(OC)ccc(OC)c21 | inactive |  |  |
| FC(F)(F)c1ccc(C=NC23CC4CC(CC(C4)C2)C3)cc1 |  | > 61.7 µM | > 61.7 µM |

| SMILES | outcome | EC50 | IC50 |
| --- | --- | --- | --- |
| O=C(NCc1cc(CNC(=O)c2cccc(O)c2O)cc(CNC(=O)c2cccc(O)c2O)c1)c1cccc(O)c1O |  | > 200 µM | 1.95 µM |
| N#Cc1c(N)c(C(=O)Nc2ccccc2)n2c1CCCC2 |  | > 200 µM | > 200 µM |
| O/N=C1/C(=C/c2ccc(Cl)c(Cl)c2)CCCC1C(NO)c1ccc(Cl)c(Cl)c1 (configuration not stated) |  | > 3.16 µM | > 3.16 µM |
| Nc1nc(=S)[nH]c(C(=O)Nc2nccs2)c1-c1ccccc1 |  | > 21.9 µM | > 21.9 µM |
| COc1ccc(C2OC(=O)c3ccccc32)c2ccccc12 (configuration not stated) |  | > 46.8 µM | > 46.8 µM |
| CC(Oc1ccc(OCC2CCCCC2)cc1)C(=O)OCC(=O)c1ccc(-c2ccccc2)cc1 (configuration not stated) |  | > 20.9 µM | > 20.9 µM |
| COc1ccc(C(=O)NO)cc1 |  | > 200 µM | 25.1 µM |
| Cc1nc2c(=O)n(C)c(=O)n(C)c2nc1CCC(=O)O |  | > 200 µM | > 200 µM |
| COc1cc(C)c2c(c1C)OC(=O)c1c(C)c(Cl)c(O)c(C=O)c1O2 |  | > 49 µM | > 49 µM |
| CN(C)c1ccc(/C=N/NC(=S)Nc2ccccc2)cc1 |  | > 200 µM | > 200 µM |
| N=c1oc2cc(O)ccc2cc1C(=O)NCc1ccccc1 |  | > 200 µM | 20 µM |
| O=[N+]([O-])c1ccccc1C1SCc2nc3ccccc3n21 (configuration not stated) |  | > 38.9 µM | 33.9 µM |
| S=c1sc2c(s1)SCCS2 |  | > 200 µM | 155 µM |
| CSc1nc(NC2OCC(O)C(O)C2O)cc(=O)n1C (configuration not stated) | inactive |  |  |
| NC(=O)/N=N/C(N)=O |  | 105 µM | 372 µM |
| Cc1c(C(=O)CC(=O)C(=O)Nc2c(C(C)C)cccc2C(C)C)[n+](=O)c2ccccc2n1[O-] |  | > 6.03 µM | > 6.03 µM |
| COc1cc2ccc1OCc1cccc(n1)COc1ccc(cc1OC)C=Nc1ccc(cc1)-c1ccc(cc1)N=C2 |  | > 200 µM | > 200 µM |
| CC(=O)OC12c3ccccc3C(c3ccccc31)C1C(=O)N(c3ccccc3O)C(=O)C12 (configuration not stated) |  | 100 µM | 105 µM |
| O=C1NC2OCC(O)C(O)C2O1 (configuration not stated) |  | > 200 µM | > 200 µM |
| CNC(=O)OCCN1c2ccccc2Sc2ccccc21 |  | > 200 µM | 77.6 µM |
| COC(=O)/C(C#N)=C\N1CCNC1=S |  | > 200 µM | > 200 µM |
